In patent publication US8354432B2, “Cyclic derivatives as modulators of chemokine receptor activity” (Bristol-Myers Squibb Company, priority 2006, dated 2013):
Where two headings read alike, the source gives them in different places.

Target: T1, CCR1 (Homo sapiens, UniProt P32246)
T1 construct: the THP-1 cell line, which expresses the endogenous CCR1 receptor; endogenous in cells; host or cells: THP-1 cells (human monocytic line); the text also allows human PBMC or human monocytes
T1 sequence (P32246 1-355): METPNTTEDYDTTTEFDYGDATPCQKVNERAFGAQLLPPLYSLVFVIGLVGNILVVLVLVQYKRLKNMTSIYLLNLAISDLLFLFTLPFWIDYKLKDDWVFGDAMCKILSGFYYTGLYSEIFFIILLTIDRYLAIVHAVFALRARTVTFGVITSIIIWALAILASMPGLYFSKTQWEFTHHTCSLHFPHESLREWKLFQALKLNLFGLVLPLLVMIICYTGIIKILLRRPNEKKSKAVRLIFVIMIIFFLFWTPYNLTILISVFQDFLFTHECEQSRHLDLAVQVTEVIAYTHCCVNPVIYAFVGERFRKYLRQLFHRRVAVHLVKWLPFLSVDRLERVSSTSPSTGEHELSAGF
Assay: Antagonism of MIP-1α binding to human THP-1 cells (CCR1 binding)
Description: Antagonism of MIP-1α Binding to Human THP-1 Cells
Compounds of the present invention have activity in the antagonism of MIP-1α binding to human THP-1 cells described here.
Millipore filter plates (#MABVN1250) are treated with 100 μl of binding buffer (0.5% bovine serum albumin, 20 mM HEPES buffer and 5 mM magnesium chloride in RPMI 1640 media) for thirty minutes at room temperature. To measure binding, 50 μl of binding buffer, with or without a known concentration of compound, is combined with 50 μl of ^125-I labeled human MIP-1α (to give a final concentration of 50 pM radioligand) and 50 μl of binding buffer containing 5×10^5 cells. Cells used for such binding assays can include the THP-1 cell line, which expresses the endogenous CCR1 receptor, or human peripheral blood mononuclear cells, isolated by Ficoll-Hypaque gradient centrifugation, or human monocytes (Weiner et al., J. Immunol. Methods, 1980, 36, 89). The mixture of compound, cells and radioligand is incubated at room temperature for thirty minutes. Plates are placed onto a vacuum manifold, vacuum applied, and the plates washed three times with binding buffer containing 0.5M NaCl. The plastic skirt is removed from the plate, the plate allowed to air dry, the wells punched out and counted. The percent inhibition of binding is calculated using the total counts obtained in the absence of any competing compound and the background binding determined by addition of 100 nM MIP-1α in place of the test compound.

[1] = 125-I labeled human MIP-1α (50 pM), THP-1 cells expressing endogenous CCR1, room temperature, thirty minutes, read-out: CCR1 Binding Ki (n = 1 unless otherwise noted)

Compound | Ki [1] [µM] | Ki [µM]
COc1cc(N2CCC(C(N)Cn3nc(C(F)(F)F)c(Cl)c3C)CC2)c(Cl)cc1Cl (racemic) [Example 4a, 2-(4-Chloro-5-methyl-3-(trifluoromethyl)-1H-pyrazol-1-yl)-1-(1-(2,4-dichloro-5-methoxyphenyl)piperidin-4-yl)ethanamine] | 0.125 | 
COc1cc(N2CCC(C)(C(O)Cn3nc(C(F)(F)F)c(Cl)c3C)CC2)ccc1Cl (racemic) [Example 11, 1-(1-(4-Chloro-3-methoxyphenyl)-4-methylpiperidin-4-yl)-2-(4-chloro-5-methyl-3-(trifluoromethyl)-1H-pyrazol-1-yl)ethanol] | ~1.25 | 
COc1cc(N2CCC(C(O)Cn3nc(C(F)(F)F)nc3C)CC2)ccc1Cl (racemic) [Example 2h, 1-(1-(4-Chloro-3-methoxyphenyl)piperidin-4-yl)-2-(5-methyl-3-(trifluoromethyl)-1H-1,2,4-triazol-1-yl)ethanol] | 0.156 | 
N-(1-(1-(4-chloro-3-methoxyphenyl)piperidin-4-yl)-2-(5-methyl-3-(trifluoromethyl)-1H-pyrazol-1-yl)ethyl)-2-hydroxyacetamide [Example 5b] | ~2.2 | 
COc1cc(N2CCC(C(Cn3nc(C(F)(F)F)c(Cl)c3C)NC(=O)CF)CC2)c(Cl)cc1Cl (racemic) [Example 4p, N-(2-(4-Chloro-5-methyl-3-(trifluoromethyl)-1H-pyrazol-1-yl)-1-(1-(2,4-dichloro-5-methoxyphenyl)piperidin-4-yl)ethyl)-2-fluoroacetamide] |  | 0.0043
COc1cc(N2CCC(C(Cn3nc(C(F)(F)F)c(Cl)c3C)NC(=O)CO)CC2)c(Cl)cc1Cl (centres unmarked) [Example 4i, N-(2-(4-Chloro-5-methyl-3-(trifluoromethyl)-1H-pyrazol-1-yl)-1-(1-(2,4-dichloro-5-methoxyphenyl)piperidin-4-yl)ethyl)-2-hydroxyacetamide] | 0.00515 ± 0.00168 | 
COc1cc(N2CCC(C(Cn3nc(C(F)(F)F)c(Cl)c3C)NC(C)=O)CC2)c(Cl)cc1Cl (racemic) [Example 4c, N-(2-(4-Chloro-5-methyl-3-(trifluoromethyl)-1H-pyrazol-1-yl)-1-(1-(2,4-dichloro-5-methoxyphenyl)piperidin-4-yl)ethyl)acetamide] | 0.0068 | 
COc1cc(N2CCC(C(Cn3nc(C(F)(F)F)cc3C)NC(=O)CN)CC2)ccc1Cl (single isomer, unassigned) [Example 5c, 2-amino-N-(1-(1-(4-chloro-3-methoxyphenyl)piperidin-4-yl)-2-(5-methyl-3-(trifluoromethyl)-1H-pyrazol-1-yl)ethyl)acetamide] | 0.145 | 
COc1cc(N2CCC(C(Cn3nc(C(F)(F)F)c(Cl)c3C)NC(=O)[C@@H](C)O)CC2)c(Cl)cc1Cl (mixture of isomers) [Example 4n, (2R)-N-(2-(4-Chloro-5-methyl-3-(trifluoromethyl)-1H-pyrazol-1-yl)-1-(1-(2,4-dichloro-5-methoxyphenyl)piperidin-4-yl)ethyl)-2-hydroxypropanamide] | 0.00346 ± 0.00048 | 
COc1cc(N2CCC(C(O)Cn3nc(N)c4cccnc43)CC2)ccc1Cl (racemic) [Example 2c, 2-(3-Amino-1H-pyrazolo[3,4-b]pyridin-1-yl)-1-(1-(4-chloro-3-methoxyphenyl)piperidin-4-yl)ethanol] | ~2.22 | 
COc1cccc(N2CCC(C(O)Cn3nc(C(F)(F)F)c(Cl)c3C)CC2)c1 (racemic) [Example 15b, 2-(4-Chloro-5-methyl-3-(trifluoromethyl)-1H-pyrazol-1-yl)-1-(1-(3-methoxyphenyl)piperidin-4-yl)ethanol] | 1.02 | 
